Test results: patent US20070219237A1, “Chromane Derivatives” (Pfizer Inc, priority 2006, published 2007)

Biological target: T1, porcine gastric H^+/K^+-ATPase (Sus scrofa, UniProt P19156)
T1 construct: prepared from mucous membrane in fresh porcine stomachs by homogenization; from tissue; host or cells: gastric vesicles from mucous membrane of fresh porcine stomachs
Assay: Ion-tight porcine gastric H+/K+-ATPase inhibition
Type: biochemical
Details: ion-tight gastric vesicles, 150 mM KCl, 15 μM valinomycin, pH 7.4, 37° C., 30 minutes; read-out: IC50 of the inhibitory activity
Description: The porcine gastric vesicles for Porcine gastric H^+/K^+-ATPase inhibition assays were prepared from mucous membrane in fresh porcine stomachs by homogenization with a tight-fitted polytetrafluoroethylene (Teflone®) homogenizer in 0.25 M sucrose at 4° C. The crude pellet was removed with centrifugation at 20,000 g for 30 min. Then supernatant was centrifuged at 100,000 g for 30 min. The resulting pellet was re-suspended in 0.25 M sucrose, and then subjected to density gradient centrifugation at 132,000 g for 90 min. The gastric vesicles were collected from interface on 0.25 M sucrose layer containing 7% FicollTM PM400(Amersham Biosciences). This procedure was performed in a cold room.
Ion-tight porcine gastric H^+/K^+-ATPase inhibition was measured according to the modified method described in Biochemical Pharmacology, 1988, 37, 2231-2236.
The isolated vesicles were kept in deep-freezer until use. For enzyme assay, vesicles were diluted with 3 mM MgSO4 containing 5 mM Tris (pH 7.4 at 37° C.).
Enzyme reaction was performed incubating 150 mM KCl, 3 mM Na2ATP, 3 mM MgSO4, 15 μM valinomycin and 3.0 μg of vesicles for 30 minutes at 37° C. in a final 60 μl of reaction mixture (5mM Tris, pH 7.4) with or without the test compound. Enzyme reaction was stopped by adding 10% SDS. Released inorganic phosphate from ATP was detected by incubating with mixture of 1 part of 35 mM ammonium molybdate tetrahydrate in 15 mM Zinc acetate hydrate and 4 parts of 10% ascorbic acid (pH 5.0), resulting in phosphomolybdate, which has optical density at 750 nm.

T1 sequence (P19156 2-1034 limits assumed): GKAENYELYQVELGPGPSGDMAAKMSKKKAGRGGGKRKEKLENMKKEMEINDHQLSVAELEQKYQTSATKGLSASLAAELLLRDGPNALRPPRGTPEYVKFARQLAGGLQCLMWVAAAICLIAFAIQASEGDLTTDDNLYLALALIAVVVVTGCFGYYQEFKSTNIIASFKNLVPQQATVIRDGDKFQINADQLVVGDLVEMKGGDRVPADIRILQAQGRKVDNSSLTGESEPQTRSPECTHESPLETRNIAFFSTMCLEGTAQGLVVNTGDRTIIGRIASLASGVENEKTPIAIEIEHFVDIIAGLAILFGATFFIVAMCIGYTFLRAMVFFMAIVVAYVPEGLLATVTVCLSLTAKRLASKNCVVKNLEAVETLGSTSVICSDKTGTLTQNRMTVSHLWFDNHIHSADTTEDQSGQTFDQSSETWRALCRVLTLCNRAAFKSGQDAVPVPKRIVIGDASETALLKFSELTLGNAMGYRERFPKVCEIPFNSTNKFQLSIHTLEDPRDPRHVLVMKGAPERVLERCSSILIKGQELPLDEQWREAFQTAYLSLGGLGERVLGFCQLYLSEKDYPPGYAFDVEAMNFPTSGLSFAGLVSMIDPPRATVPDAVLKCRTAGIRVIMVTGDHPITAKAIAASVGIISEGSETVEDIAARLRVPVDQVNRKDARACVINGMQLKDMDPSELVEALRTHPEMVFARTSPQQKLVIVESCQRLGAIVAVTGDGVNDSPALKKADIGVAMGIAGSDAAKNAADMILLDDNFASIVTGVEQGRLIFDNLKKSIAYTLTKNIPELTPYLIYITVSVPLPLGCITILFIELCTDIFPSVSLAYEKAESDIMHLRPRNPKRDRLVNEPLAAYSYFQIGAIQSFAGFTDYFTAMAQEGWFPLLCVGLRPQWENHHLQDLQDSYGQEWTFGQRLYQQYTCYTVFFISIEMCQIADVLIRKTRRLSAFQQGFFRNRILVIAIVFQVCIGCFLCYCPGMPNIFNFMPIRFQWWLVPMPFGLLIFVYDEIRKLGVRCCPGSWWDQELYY
T1 sequence (P18434 whole entry partner): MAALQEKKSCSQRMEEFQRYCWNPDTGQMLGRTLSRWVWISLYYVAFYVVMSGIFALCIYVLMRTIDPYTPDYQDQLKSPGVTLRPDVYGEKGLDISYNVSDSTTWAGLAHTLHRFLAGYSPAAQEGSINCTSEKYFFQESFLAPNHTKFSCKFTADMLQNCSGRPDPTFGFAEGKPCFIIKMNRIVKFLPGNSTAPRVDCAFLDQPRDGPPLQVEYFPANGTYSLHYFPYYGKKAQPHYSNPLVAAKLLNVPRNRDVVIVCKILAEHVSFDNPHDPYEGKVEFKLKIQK

Structure (SMILES) | IC50
Cc1nc2c(NC3CCOc4cc(F)cc(F)c43)cc(C(=O)N3CCOCC3)cn2c1CO (single isomer, unassigned; (+)) [Example 8-2, (+)-[8-[(5,7-Difluoro-3,4-dihydro-2H-chromen-4-yl)amino]-2-methyl-6-(morpholin-4-ylcarbonyl)imidazo[1,2-a]pyridin-3-yl]methanol] | 40 nM
Cc1nc2c(NC3CCOc4cc(F)cc(F)c43)cc(C(=O)N3CCOCC3)cn2c1CO (single isomer, unassigned; (-)) [Example 8-3, (−)-[8-[5,7-Difluoro-3,4-dihydro-2H-chromen-4-yl)amino]-2-methyl-6-(morpholin-4-ylcarbonyl)imidazo[1,2-a]pyridin-3-ylmethanol] | 52 nM
Cc1nc2c(NC3CCOc4cc(F)cc(F)c43)cc(C(=O)N(C)C)cn2c1CO (single isomer, unassigned) [Example 3-3] | 41 nM
Cc1cccc2c1C(Nc1cc(C(=O)N3CCOCC3)cn3c(CO)c(C)nc13)CCO2 (single isomer, unassigned; (-)) [Example 6-2] | 43 nM
Cc1nc2c(NC3CCOc4cccc(F)c43)cc(C(=O)N(C)C)cn2c1CO (single isomer, unassigned; (-)) [Example 4-2, (−)-8-[(5-Fluoro-3,4-dihydro-2H-chromen-4-yl)amino]-3-(hydroxymethyl)-N,N,2-trimethylimidazo [1,2a]pyridine-6-carboxamide] | 29 nM
Cc1nc2c(NC3CCOc4cc(F)cc(F)c43)cc(C(=O)N3CCOCC3)cn2c1CO (racemic) [Example 8-1] | 55 nM
Cc1nc2c(NC3CCOc4cccc(F)c43)cc(C(=O)N(C)C)cn2c1CO (single isomer, unassigned; (+)) [Example 4-3, (+)-8-[(5-Fluoro-3,4-dihydro-2H-chromen-4yl)-amino]-3-(hydroxymethyl)-N,N,2-trimethylimidazo [1,2-a]pyridine-6-carboxamide] | 30 nM
Cc1nc2c(NC3CCOc4ccccc43)cc(C(=O)N3CCOCC3)cn2c1CO (single isomer, unassigned; (+)) [Example 7-3, (+)-[8-(3,4-Dihydro-2H-chromen-4-ylamino)-2-methyl-6-(morpholin-4-ylcarbonyl)imidazo[1,2-a]pyridin-3-yl]methanol] | 110 nM
Cc1nc2c(NC3CCOc4cccc(F)c43)cc(C(=O)N3CCOCC3)cn2c1CO (racemic) [Example 9-1, [8-[(5-Fluoro-3,4-dihydro-2H-chromen-4-yl)amino]-2-methyl-6-(morpholin-4-ylcarbonyl)imidazo[1,2-a]pyridin-3-yl]methanol] | 47 nM
Cc1nc2c(NC3CCOc4ccccc43)cc(C(=O)N3CCOCC3)cn2c1CO (racemic) [Example 7-1, [8-(3,4-Dihydro-2H-chromen-4-ylamino)_-2-methyl-6-(morpholin-4-ylcarbonyl)imidazo[1,2-a]pyridin-3-yl]methanol] | 140 nM
Cc1nc2c(NC3CCOc4cccc(F)c43)cc(C(=O)N3CCOCC3)cn2c1CO (single isomer, unassigned; (-)) [Example 9-3] | 61 nM
Cc1cccc2c1C(Nc1cc(C(=O)N(C)C)cn3c(CO)c(C)nc13)CCO2 (single isomer, unassigned) [Example 1-3] | 89 nM
Cc1nc2c(NC3CCOc4cccc(F)c43)cc(C(=O)N3CCOCC3)cn2c1CO (single isomer, unassigned; (+)) [Example 9-2] | 72 nM
Cc1nc2c(NC3CCOc4ccccc43)cc(C(=O)N3CCOCC3)cn2c1CO (single isomer, unassigned; (-)) [Example 7-2, (−)-[f8-(3,4-Dihydro-2H-chromen-4-ylamino)-2-methyl-6-(morpholin-4-ylcarbonyl)imidazo[1,2-a]pyridin-3-yl]methanol] | 96 nM
Cc1nc2c(NC3CCOc4ccccc43)cc(C(=O)N(C)C)cn2c1CO (single isomer, unassigned; (-)) [Example 2-3] | 67 nM
Cc1cccc2c1[C@@H](Nc1cc(C(=O)N(C)C)cn3c(CO)c(C)nc13)CCO2 (single isomer, unassigned) [Example 1-2] | 84 nM
Cc1nc2c(NC3CCOc4cc(F)cc(F)c43)cc(C(=O)N(C)C)cn2c1CO (single isomer, unassigned) [Example 3-2] | 37 nM
Cc1cccc2c1C(Nc1cc(C(=O)N3CCOCC3)cn3c(CO)c(C)nc13)CCO2 (single isomer, unassigned; (+)) [Example 6-3, (+)-[2-Methyl-8-[(5-methyl-3,4-dihydro-2H-chromen-4-yl)amino]-6-(morpholin-4-ylcarbonyl)imidazo[1,2-a]pyridin-3-yl]methanol] | 61 nM
Cc1nc2c(NC3CCOc4ccccc43)cc(C(=O)N(C)C)cn2c1CO (racemic) [Example 2-1, 8-(3,4-Dihydro-2H-chromen-4-ylamino)-3-(hydroxymethyl)-N,N,2-trimethylimidazo[1,2a]pyridine-6-carboxamide] | 75 nM
Cc1nc2c(NC3CCOc4ccccc43)cc(C(=O)N(C)C)cn2c1CO (single isomer, unassigned; (+)) [Example 2-2, (+)-8-(3,4-Dihydro-2H-chromen-4-ylamino)-3-(hydroxymethyl)-N,N,2-trimethylimidazo[1,2-a]pyridine-6-car boxamide] | 61 nM

Tested on: not given
Assay: not given
Details: not given

Structure (SMILES) | melting point
Cc1nc2c(N[C@H]3CCOc4cc(F)cc(F)c43)cc(C(=O)N(C)C)cn2c1CO (single isomer, unassigned) [Example 3-3] | 186 °C
